Data reported in US4667030A, “Hydrazide succinimide derivatives of antineoplastic indole-dihydroindole alkaloids” (priority 1985, dated 1987).
In brackets after ≈: the same amount, converted by molar mass. Structures can show the parent of a compound that is named as a salt.

Experiments:
[1] = system: CCRF-CEM, a human acute lymphoblastic leukemia cell line; assay: CCRF-CEM cytotoxicity screen (cytostatic activity); format: cell-based; conditions: for IC50: Homo sapiens, read-out: IC50 (50% minimum inhibitory concentration)
Protocol: The compounds of this invention have utility as anti-neoplastic compounds active against transplanted tumors in mice. They also have […]. As evidence of such utility, the cytostatic activity of the compounds was measured by standard procedures against CCRF-CEM, a human acute lymphoblastic leukemia cell line. In the table, column 1 gives the name of the compound, and column 2 the 50% minimum inhibitory concentration of the drug from column 1 in mcg./ml.

6C3HED lymphosarcoma = assay: In vivo test, transplanted 6C3HED lymphosarcoma in mice; conditions: for % INHIBITION / In vivo test: Toxic: 6C3HED; for activity against transplanted tumor: 6C3HED lymphosarcoma, mice
B-16 Sub.C. melanoma = assay: In vivo test, transplanted B-16 Sub.C. melanoma in mice; conditions: for activity against transplanted tumor: B-16 Sub.C. melanoma, mice
C-26 colon carcinoma = assay: In vivo test, transplanted C-26 colon carcinoma in mice; conditions: for activity against transplanted tumor: C-26 colon carcinoma, mice
[2] = system: X-5563 plasma cell myeloma; assay: In vivo test, transplanted X-5563 plasma cell myeloma in mice; conditions: for activity against transplanted tumor: X-5563 plasma cell myeloma, mice
[3] = system: vincristine-resistant leukemias; conditions: common neoplasms including germ-cell tumors; cited from earlier work

CC[C@H]1C[C@@H]2CN(CCc3c([nH]c4ccccc34)[C@@](C(=O)OC)(c3cc4c(cc3OC)N(C)[C@H]3[C@@](O)(C(=O)NN5C(=O)CCC5=O)[C@H](O)[C@]5(CC)C=CCN6CC[C@]43[C@@H]65)C2)C1 [4'-deoxy-4-desacetylleurosidine 3-carboxhydrazide N^2-succinimide sulfate]
IC50 [1]: 0.075 µg/mL

CC[C@]1(O)C[C@@H]2CN(CCc3c([nH]c4ccccc34)[C@@](C(=O)OC)(c3cc4c(cc3OC)N(C)[C@H]3[C@@](O)(C(=O)NN5C(=O)CCC5=O)[C@H](O)[C@]5(CC)C=CCN6CC[C@]43[C@@H]65)C2)C1 [4-Desacetyl VLB 3-carboxhydrazide N^2 --succinimide sulfate]
IC50 [1]: 0.02 µg/mL | % INHIBITION (6C3HED lymphosarcoma; i.v. x 1, 1.25 mg/kg): 100% | % INHIBITION (6C3HED lymphosarcoma; i.v. x 1, 2.5 mg/kg): 100% | In vivo test: Toxic (6C3HED lymphosarcoma; i.v. x 1, 5 mg/kg): Toxic

CC[C@]1(O)C[C@@H]2CN(CCc3c([nH]c4ccccc34)[C@@](C(=O)OC)(c3cc4c(cc3OC)N(C)[C@H]3[C@@](O)(C(=O)NN5C(=O)CCCC5=O)[C@H](O)[C@]5(CC)C=CCN6CC[C@]43[C@@H]65)C2)C1 [4-Desacetyl VLB Hydrazide N^2 --Glutarimide Sulfate]
% INHIBITION (6C3HED lymphosarcoma; i.v. x 1, 0.0625 mg/kg): 79% | % INHIBITION (6C3HED lymphosarcoma; i.v. x 1, 0.125 mg/kg): 80% | % INHIBITION (6C3HED lymphosarcoma; i.v. x 1, 0.25 mg/kg): 100% | % INHIBITION (6C3HED lymphosarcoma; i.v. x 1, 0.5 mg/kg): 100% | % INHIBITION (6C3HED lymphosarcoma; i.v. x 1, 1 mg/kg): 100% | In vivo test: Toxic (6C3HED lymphosarcoma; i.v. x 1, 2 mg/kg): Toxic | In vivo test: Toxic (6C3HED lymphosarcoma; i.v. x 1, 4 mg/kg): Toxic | In vivo test: Toxic (6C3HED lymphosarcoma; i.v. x 1, 8 mg/kg): Toxic

CCC(=O)O[C@@H]1[C@]2(CC)C=CCN3CC[C@@]4(c5cc([C@@]6(C(=O)OC)C[C@H]7CN(CCc8c6[nH]c6ccccc86)C[C@](O)(CC)C7)c(OC)cc5N(C)[C@H]4[C@@]1(O)C(=O)NN1C(=O)CCC1=O)[C@@H]32 [4-Propionyl VLB 3-carboxhydrazide N^2 --succinimide sulfate]
IC50 [1]: 0.01 µg/mL | % INHIBITION (6C3HED lymphosarcoma; i.v. x 1, 1.25 mg/kg): 100% | % INHIBITION (6C3HED lymphosarcoma; i.v. x 1, 2.5 mg/kg): 100% | In vivo test: Toxic (6C3HED lymphosarcoma; i.v. x 1, 5 mg/kg): Toxic

CC[C@]1(O)C[C@@H]2CN(CCc3c([nH]c4ccccc34)[C@@](C(=O)OC)(c3cc4c(cc3OC)N(C)[C@H]3[C@@](O)(C(=O)NN5C(=O)CCC5=O)[C@H](OC(=O)CCC(=O)O)[C@]5(CC)C=CCN6CC[C@]43[C@@H]65)C2)C1 [4-Succinoyl VLB 3-carboxhydrazide N^2-succinimide]
IC50 [1]: 0.5 µg/mL (≈ 0.526 µM)

CC[C@]1(O)C[C@@H]2CN(CCc3c([nH]c4ccccc34)[C@@](C(=O)OC)(c3cc4c(cc3OC)N(C)[C@H]3[C@@](O)(C(=O)NN5C(=O)CCCC5=O)[C@H](O)[C@]5(CC)C=CCN6CC[C@]43[C@@H]65)C2)C1 [4-desacetyl VLB 3-carboxhydrazide N^2-glutarimide]
activity against transplanted tumor (6C3HED lymphosarcoma): outstanding activity | activity against transplanted tumor (B-16 Sub.C. melanoma): outstanding activity | activity against transplanted tumor (C-26 colon carcinoma): outstanding activity | activity against transplanted tumor [2]: outstanding activity

CC[C@]1(O)C[C@@H]2CN(CCc3c([nH]c4ccccc34)[C@@](C(=O)OC)(c3cc4c(cc3OC)N(C)[C@H]3[C@@](O)(C(=O)NN5C(=O)CCC5=O)[C@H](O)[C@]5(CC)C=CCN6CC[C@]43[C@@H]65)C2)C1 [4-desacetyl VLB 3-carboxhydrazide N^2-succinimide]
activity against transplanted tumor (6C3HED lymphosarcoma): outstanding activity | activity against transplanted tumor (B-16 Sub.C. melanoma): outstanding activity | activity against transplanted tumor (C-26 colon carcinoma): outstanding activity | activity against transplanted tumor [2]: outstanding activity

CC[C@]1(O)C[C@@H]2CN(CCc3c([nH]c4ccccc34)[C@@](C(=O)OC)(c3cc4c(cc3OC)N(C)[C@H]3[C@@](O)(C(N)=O)[C@H](O)[C@]5(CC)C=CCN6CC[C@]43[C@@H]65)C2)C1 [vindesine, 4-desacetyl VLB 3-carboxamide]
effectiveness in treating leukemias and neoplasms [3]: effective in treating some vincristine-resistant leukemias in addition to many common neoplasms including germ-cell tumors

VLB 3-carboxhydrazide N^2 --succinimide sulfate
IC50 (50% minimum inhibitory concentration) [1]: 0.01 µg/mL | % INHIBITION (6C3HED lymphosarcoma; i.v. x 1, 0.0625 mg/kg): 11% | % INHIBITION (6C3HED lymphosarcoma; i.v. x 1, 0.125 mg/kg): 94% | % INHIBITION (6C3HED lymphosarcoma; i.v. x 1, 0.25 mg/kg): 100% | % INHIBITION (6C3HED lymphosarcoma; i.v. x 1, 0.5 mg/kg): 100% | % INHIBITION (6C3HED lymphosarcoma; i.v. x 1, 1 mg/kg): 100% | In vivo test: Toxic (6C3HED lymphosarcoma; i.v. x 1, 2 mg/kg): Toxic | In vivo test: Toxic (6C3HED lymphosarcoma; i.v. x 1, 4 mg/kg): Toxic | % INHIBITION (B-16 Sub.C. melanoma; B-16 Sub. C., i.v. 1 & 7, dose 0.5): 51% | % INHIBITION (B-16 Sub.C. melanoma; B-16 Sub. C., i.v. 1 & 7, dose 1): 82% | % INHIBITION (B-16 Sub.C. melanoma; B-16 Sub. C., i.v. 1 & 7, dose 2): 91% | In vivo test: Toxic (B-16 Sub.C. melanoma; B-16 Sub. C., i.v. 1 & 7, dose 4): Toxic | % INHIBITION (B-16 Sub.C. melanoma; B-16 Sub. C., i.v. 1 & 7, dose 25 (so in the source)): 8% | % INHIBITION (C-26 colon carcinoma; C-26, i.v. 1 & 7, dose 0.25): 0% | % INHIBITION (C-26 colon carcinoma; C-26, i.v. 1 & 7, dose 0.5): 0% | % INHIBITION (C-26 colon carcinoma; C-26, i.v. 1 & 7, dose 1): 50% | % INHIBITION (C-26 colon carcinoma; C-26, i.v. 1 & 7, dose 2): 73% | In vivo test: Toxic (C-26 colon carcinoma; C-26, i.v. 1 & 7, dose 4): Toxic | % INHIBITION ([2]; X5563, i.v. 1 & 7, dose 0.25): 25% | % INHIBITION ([2]; X5563, i.v. 1 & 7, dose 0.5): 30% | % INHIBITION ([2]; X5563, i.v. 1 & 7, dose 1): 59% | % INHIBITION ([2]; X5563, i.v. 1 & 7, dose 2): 94% | In vivo test: Toxic ([2]; X5563, i.v. 1 & 7, dose 4): Toxic
